Experimental data published in patent US8569336B2, “Compounds for the treatment of inflammatory disorders” (priority 2008, dated 2013).
Read-outs that look alike come from different tables or passages of the source.

What was measured:
[1] = biological target: T1, purified catalytic domain of recombinant human TACE (rhTACEc) (Homo sapiens, UniProt P78536, N452Q/S266A); assay: TACE kinetic assay: cleavage of internally quenched peptide substrate TNF-FRET 2 (Ki); format: biochemical; settings: TNF-FRET 2 substrate
T1 construct: 6xHis (C); made in house; host or cells: baculovirus/Hi5 insect cells
T1 sequence (P78536 215-477 S266A/N452Q): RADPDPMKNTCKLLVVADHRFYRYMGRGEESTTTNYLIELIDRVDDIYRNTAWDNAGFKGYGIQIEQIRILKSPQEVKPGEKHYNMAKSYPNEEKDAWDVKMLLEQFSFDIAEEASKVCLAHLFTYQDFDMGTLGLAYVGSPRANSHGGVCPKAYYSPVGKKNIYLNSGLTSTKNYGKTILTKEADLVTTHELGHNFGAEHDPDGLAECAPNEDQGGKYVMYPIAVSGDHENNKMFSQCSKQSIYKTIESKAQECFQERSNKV

[2] = system: TNF-α production from human whole blood; assay: Inhibition of TNF-α production from human whole blood (hWBA), LPS stimulated, ELISA; format: cell-based; settings: Homo sapiens, TNF-α by ELISA, read-out: hWBA (IC50)
[3] = LPS-stimulated human whole blood
[4] = 3.5 h, human whole blood diluted 1:1, LPS stimulated, 3.5 h
[5] = human whole blood diluted 1:1, LPS stimulated

Compound	Ki ([1]; Ki)	IC50 [2, 3]	Ki ([1]; read-out: Ki)	IC50 [2, 4]	IC50 [2, 5]
CCCN1CCC(c2nc3cc([C@]4(CN5Cc6ccc(OC)c(F)c6C5=O)NC(=O)NC4=O)oc3cc2F)CC1 [Compound 1324]	0.58 nM	248 nM	–	–	–
COc1ccc2c(c1)C(=O)N(C[C@@]1(c3cc4cc(C(=O)O)c(F)cc4o3)NC(=O)NC1=O)C2 [Compound 1272]	–	–	0.51 nM	667 nM	–
COc1ccc2c(c1)C(=O)N(C[C@@]1(c3cc4cc(C(=O)N5CCC(N(C)C)CC5)c(F)cc4o3)NC(=O)NC1=O)C2 [Compound 1277]	–	–	0.62 nM	471 nM	–
COc1ccc2c(c1)C(=O)N(C[C@@]1(c3cc4ncc(C(N)=O)cc4o3)NC(=O)NC1=O)C2 [Compound 2459]	0.367 nM	–	–	–	173 nM
COc1ccc2c(c1)C(=O)N(C[C@@]1(c3cc4cc(-c5cc(O)n[nH]5)cnc4o3)NC(=O)NC1=O)C2 [Compound 2275]	–	–	1.08 nM	491 nM	–
COc1ccc2c(c1)C(=O)N(C[C@@]1(c3cc4c(o3)CNCC4)NC(=O)NC1=O)C2 [Compound 2266]	–	–	7.83 nM	860 nM	–
COc1ccc2c(c1F)C(=O)N(C[C@@]1(c3cc4c(ccc5sc(N)nc54)o3)NC(=O)NC1=O)C2 [Compound 1741]	–	231 nM	0.22 nM	–	–
COc1ccc2c(c1)C(=O)N(C[C@@]1(c3cc4ccc(C(=O)NC[C@H](C)O)cc4o3)NC(=O)NC1=O)C2 [Compound 2415]	–	–	0.51 nM	–	452 nM
COc1ccc2c(c1F)C(=O)N(C[C@@]1(c3ccc(-c4cccnc4)o3)NC(=O)NC1=O)C2 [Compound 314]	–	536 nM	0.444 nM	–	–
COc1ccc2c(c1)C(=O)N(C[C@@]1(c3cc4cc(C5CNC(=O)C5)ccc4o3)NC(=O)NC1=O)C2 (stereo partly drawn) [Compound 2215]	0.524 nM	–	–	381 nM	–
COc1ccc2c(c1)C(=O)N(C[C@@]1(c3ccc(C(N)=O)cc3)NC(=O)NC1=O)C2 [Compound 2403]	–	–	1.3 nM	–	1970 nM
COc1ccc2c(c1F)C(=O)N(C[C@@]1(c3ccc(-c4ccc(N)nc4)o3)NC(=O)NC1=O)C2 [Compound 310]	–	244 nM	0.0208 nM	–	–
CCNc1nnc(-c2ccc3oc([C@]4(CN5Cc6ccc(OC)cc6C5=O)NC(=O)NC4=O)cc3n2)o1 [Compound 1906]	–	606 nM	0.77 nM	–	–
COc1ccc2c(c1)C(=O)N(C[C@@]1(c3cc4cnc(C5=NCCN5)cc4o3)NC(=O)NC1=O)C2 [Compound 2273]	–	–	0.124 nM	747 nM	–
COc1ccc2c(c1)C(=O)N(C[C@@]1(c3cc4cc(S(=O)(=O)NCCN(C)C)ccc4o3)NC(=O)NC1=O)C2 [Compound 2482]	–	–	0.67 nM	–	304 nM
COc1ccc2c(c1)C(=O)N(CC1(c3cc4cc(-c5cc(=O)[nH]c(N)n5)ccc4o3)NC(=O)NC1=O)C2 (stereo not drawn) [Compound 2224]	0.313 nM	–	–	139 nM	–
COc1ccc2c(c1)C(=O)N(C[C@@]1(c3cc4c(C)ncc(C(=O)O)c4o3)NC(=O)NC1=O)C2 [Compound 2446]	–	–	2.26 nM	–	1600 nM
COc1ccc2c(c1)C(=O)N(C[C@@]1(c3cc4cc(CO)ccc4o3)NC(=O)NC1=O)C2 [Compound 2178]	–	–	0.546 nM	518 nM	–
COc1ccc2c(c1)C(=O)N(C[C@@]1(c3ccc(-c4ccc5c(c4)CN(CC4(C)NC(=O)NC4=O)C5=O)cc3)NC(=O)NC1=O)C2 (stereo partly drawn) [Compound 2174]	–	–	1.88 nM	617 nM	–
COc1ccc2c(c1)C(=O)N(C[C@@]1(c3cc4cc(C#N)ccc4o3)NC(=O)NC1=O)C2 [Compound 2476]	–	–	0.37 nM	–	848 nM
COc1ccc2c(c1)C(=O)N(C[C@@]1(c3cc4nc(-c5cncc(C#N)c5)ccc4o3)NC(=O)NC1=O)C2 [Compound 1529]	–	3660 nM	0.8 nM	–	–

Compound	Ki ([1]; Ki)	IC50 [2, 3]	Ki ([1]; read-out: Ki)	IC50 [2, 4]	IC50 [2, 5]
COc1ccc2c(c1)C(=O)N(C[C@@]1(c3cc4nc(C(=O)O)ccc4o3)NC(=O)NC1=O)C2 [Compound 1514]	–	195 nM	0.7 nM	–	–
COc1ccc2c(c1F)C(=O)N(C[C@@]1(c3cc4nc(-c5cccnc5)ccc4o3)NC(=O)NC1=O)C2 [Compound 2218]	–	–	0.232 nM	1000 nM	–
COc1ccc2c(c1F)C(=O)N(C[C@@]1(c3cc4cc(-c5c(C)n[nH]c5C)c(F)cc4o3)NC(=O)NC1=O)C2 [Compound 1183]	–	232 nM	0.14 nM	–	–
COc1ccc2c(c1)C(=O)N(C[C@@]1(c3cc4cc(-c5ccc(N)nc5)ccc4o3)NC(=O)NC1=O)C2 [Compound 2202]	–	–	0.488 nM	713 nM	–
COc1ccc2c(c1)C(=O)N(C[C@@]1(c3cc4ccc(C(N)=O)cc4o3)NC(=O)NC1=O)C2 [Compound 2408]	–	–	0.49 nM	–	132 nM
COc1ccc2c(c1)C(=O)N(C[C@@]1(c3cc4cnc(NC5CC5)nc4o3)NC(=O)NC1=O)C2 [Compound 2297]	–	–	0.822 nM	–	≥ 1000 nM
COc1ccc2c(c1)C(=O)N(C[C@@]1(c3cc4nc(-c5cccs5)ccc4o3)NC(=O)NC1=O)C2 [Compound 2162]	0.125 nM	–	–	1410 nM	–
COc1ccc2c(c1Br)C(=O)N(C[C@@]1(c3cc4ncccc4o3)NC(=O)NC1=O)C2 [Compound 1738]	–	> 10000 nM	1.4 nM	–	–
CCNc1nnc(-c2ccc3oc([C@]4(CN5Cc6ccc(OC)c(F)c6C5=O)NC(=O)NC4=O)cc3n2)o1 [Compound 1916]	–	308 nM	0.81 nM	–	–
COc1ccc2c(c1)C(=O)N(C[C@@]1(c3cc4nc(N(C)c5ccncc5)ccc4o3)NC(=O)NC1=O)C2 [Compound 2138]	–	–	0.881 nM	524 nM	–
COc1ccc2c(c1)C(=O)N(C[C@@]1(c3cc4c(o3)CCN(S(C)(=O)=O)C4)NC(=O)NC1=O)C2 [Compound 316]	–	497 nM	0.82 nM	–	–
COc1ccc2c(c1)C(=O)N(C[C@@]1(c3cc4cnc(OC)cc4o3)NC(=O)NC1=O)C2 [Compound 2308]	–	–	0.328 nM	–	2110 nM
COc1ccc2c(c1F)C(=O)N(C[C@@]1(c3cc4nc(N5CCOCC5)c(F)cc4o3)NC(=O)NC1=O)C2 [Compound 1913]	0.53 nM	657 nM	–	–	–
COc1ccc2c(c1)C(=O)N(C[C@@]1(c3cc4cc(C(=O)NCCN)c(F)cc4o3)NC(=O)NC1=O)C2 [Compound 1274]	–	–	0.5 nM	142 nM	–
COc1ccc2c(c1)C(=O)N(C[C@@]1(c3cc4nc(-c5nnn[nH]5)ccc4o3)NC(=O)NC1=O)C2 [Compound 2167]	0.351 nM	–	–	289 nM	–
COc1ccc2c(c1)C(=O)N(CC1([C@H]3C[C@H](c4ccccc4)C3)NC(=O)NC1=O)C2 (stereo partly drawn) [Compound 1915]	–	100000 nM	9.99 nM	–	–
CCOC(=O)c1ccc2cc([C@]3(CN4Cc5ccc(OC)cc5C4=O)NC(=O)NC3=O)oc2c1 [Compound 2409]	–	–	0.33 nM	–	1870 nM
COc1ccc2c(c1)C(=O)N(C[C@@]1(c3cc4cc(C(=O)N(C)CCN(C)C)c(F)cc4o3)NC(=O)NC1=O)C2 [Compound 1275]	–	–	0.88 nM	441 nM	–
CCN1CCN(c2ccc3oc([C@]4(CN5Cc6ccc(OC)c(F)c6C5=O)NC(=O)NC4=O)cc3n2)C[C@H]1C [Compound 1293]	–	–	0.79 nM	112 nM	–
COc1ccc2c(c1)C(=O)N(C[C@@]1(c3cc4ncc(C(=NO)N5CCN(c6cnccn6)CC5)cc4o3)NC(=O)NC1=O)C2 [Compound 2469]	–	–	0.59 nM	–	546 nM
COc1ccc2c(c1)C(=O)N(C[C@@]1(c3cc4cc(-c5cnccc5O)ccc4o3)NC(=O)NC1=O)C2 [Compound 2199]	–	–	1.96 nM	7360 nM	–
